From publication PMC10388362, “Fluorescent Ligands Enable Target Engagement Studies for the Intracellular Allosteric Binding Site of the Chemokine Receptor CXCR2” (Journal of Medicinal Chemistry, 2023)
“And” between values parts separate entries of the source, which are not always exact repeats. Equal values may be shown once.

Biological target: T1, CXCR2 (Homo sapiens, UniProt P25025)
T1 construct: Promega pNLF1-C (Nluc) #CXCR20TN00; host or cells: HEK293T, transient transfection (PEI)
T1 sequence (P25025 1-360): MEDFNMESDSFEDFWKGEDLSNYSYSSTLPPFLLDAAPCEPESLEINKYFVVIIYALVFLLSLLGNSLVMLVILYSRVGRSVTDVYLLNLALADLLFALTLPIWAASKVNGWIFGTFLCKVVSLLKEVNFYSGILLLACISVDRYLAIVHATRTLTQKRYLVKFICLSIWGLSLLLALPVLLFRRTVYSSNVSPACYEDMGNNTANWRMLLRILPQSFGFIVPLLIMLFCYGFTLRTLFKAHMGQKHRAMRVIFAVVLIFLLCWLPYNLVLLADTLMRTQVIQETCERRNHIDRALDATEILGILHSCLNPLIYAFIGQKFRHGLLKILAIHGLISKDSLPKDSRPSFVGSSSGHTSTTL
Assay: Membrane-based NanoBRET association and dissociation kinetic assay
Format: binding
Method: 5 μL of a solution of the fluorescent ligand (9a) diluted to varying concentrations (final assay concentrations: 10–100 nM) in the assay buffer and 5 μL of the assay buffer were transferred to a 384-well plate. For the determination of nonspecific binding, we added a solution of a nonlabeled competitor dissolved in the assay buffer (3, final assay concentration: 10 μM) instead. After the addition of 5 μL of a furimazine solution (final assay dilution: 1:350 in assay buffer), plates were incubated for 3 min in the dark at ambient temperature. Subsequently, 20 μL of the membrane preparation (2 μg total protein/well) was added (final assay volume: 35 μL). BRET ratios were measured with a CLARIOstar microplate reader using 620/10 and 475/30 nm emission filters over time at ambient temperature or 37 °C. The obtained data were analyzed using the association kinetics (one ligand concentration) algorithm in PRISM9.5 (GraphPad) to determine association kinetics using a predetermined koff as a constraint.
5 μL of a solution of the fluorescent ligand (9a) diluted to varying concentrations (final assay concentrations: 10–100 nM) in the assay buffer and 5 μL of the assay buffer were transferred to a 384-well plate. In order to determine nonspecific binding, we added a solution of a nonlabeled competitor dissolved in the assay buffer (3, final assay concentration: 10 μM) instead of the 5 μL of the assay buffer. Then, 20 μL of the membrane preparation (2 μg total protein/well) was added, and plates were incubated for 4 h at ambient temperature in the dark. Subsequently, 5 μL of a vivazine solution (final assay dilution: 1:350 in assay buffer) was added. Plates were incubated for further 60 min in the dark at ambient temperature. Thereafter, 1 μL of a solution of a […] competitor dissolved in the assay buffer (3, final assay concentration: 10 μM) was added. For control experiments, we added 1 μL of the assay buffer instead of the competitor solution. BRET ratios were measured with a CLARIOstar microplate reader using 620/10 and 475/30 nm emission filters over time at ambient temperature or 37 °C. Specific BRET ratios were calculated as a difference of total and nonspecific binding. The obtained data were analyzed using the dissociation—one phase exponential decay algorithm in PRISM9.5 (GraphPad) to determine dissociation kinetics.

[1] = CXCR2_Nluc membranes, 37 °C, mean
[2] = CXCR2_Nluc membranes, room temperature, mean
[3] = membranes, 37 °C, 9a 10 nM, single determinations
[4] = membranes, 37 °C, 9a 10 nM, single determinations, koff fixed 0.00569 min-1
[5] = membranes, 37 °C, 9a 25 nM, single determinations
[6] = membranes, 37 °C, 9a 25 nM, single determinations, koff fixed 0.00569 min-1
[7] = membranes, 37 °C, 9a 50 nM, single determinations
[8] = membranes, 37 °C, 9a 50 nM, single determinations, koff fixed 0.00569 min-1
[9] = membranes, 37 °C, 9a 100 nM, single determinations
[10] = membranes, 37 °C, 9a 100 nM, single determinations, koff fixed 0.00569 min-1
[11] = membranes, room temperature, 9a 10 nM, single determinations
[12] = membranes, room temperature, 9a 25 nM, single determinations
[13] = membranes, room temperature, 9a 50 nM, single determinations
[14] = membranes, room temperature, 9a 100 nM, single determinations

Cc1ccc([C@H](Nc2c(Nc3cccc(C(=O)NCc4cn(CCOCCOCCOCCNC(=O)c5ccc(C(=O)[O-])c(-c6c7ccc(=[N+](C)C)cc-7oc7cc(N(C)C)ccc67)c5)nn4)c3O)c(=O)c2=O)C(C)(C)C)o1 [9a, (R)-4-((2-(2-(2-(2-(4-((3-((2-((2,2-Dimethyl-1-(5-methylfuran-2-yl)propyl)amino)-3,4-dioxocyclobut-1-en-1-yl)amino)-2-hydroxybenzamido)methyl)-1H-1,2,3-triazol-1-yl)ethoxy)ethoxy)ethoxy)ethyl)carbamoyl)-2-(6-(dimethylamino)-3-(dimethyliminio)-3H-xanthen-9-yl)benzoate]
koff [1]: 9.48e-05 s⁻¹
kon [1]: 32600 M⁻¹ s⁻¹
tR [1]: 178.8 min
Kd (CXCR2_Nluc membranes, cell-free, 37 °C): 2.91 ± 0.27 nM
Kd (CXCR2_Nluc membranes, room temperature): 1.94 ± 0.27 nM
koff [2]: 3.57e-05 s⁻¹
kon [2]: 18300 M⁻¹ s⁻¹
residence time tr [2]: 485.6 min
residence time (CXCR2_Nluc membranes, room temperature, mean, read-out: residence time tr): 486 ± 28 min
koff [3]: 8.83e-05 s⁻¹
koff [min-1] [3]: 0.00567 min⁻¹ and 0.00464 min⁻¹
tR [3]: 188.6 min and 176.4 min and 215.5 min
kon [4]: 42500 M⁻¹ s⁻¹
kon [M-1 min-1] [4]: 52685.82 M⁻¹ s⁻¹ and 46570.12 M⁻¹ s⁻¹
koff [5]: 0.000102 s⁻¹
koff [min-1] [5]: 0.00658 min⁻¹ and 0.00473 min⁻¹
tR [5]: 162.5 min and 152.0 min and 211.3 min
kon [6]: 29600 M⁻¹ s⁻¹
kon [M-1 min-1] [6]: 40515.73 M⁻¹ s⁻¹ and 31065.33 M⁻¹ s⁻¹
koff [7]: 9.33e-05 s⁻¹
koff [min-1] [7]: 0.0059 min⁻¹ and 0.00531 min⁻¹
tR [7]: 178.6 min and 169.4 min and 188.3 min
kon [8]: 26700 M⁻¹ s⁻¹
kon [M-1 min-1] [8]: 29466.47 M⁻¹ s⁻¹ and 24036.28 M⁻¹ s⁻¹
koff [9]: 0.000105 s⁻¹
koff [min-1] [9]: 0.00726 min⁻¹ and 0.00487 min⁻¹
tR [9]: 159.6 min and 137.7 min and 205.4 min
kon [10]: 23300 M⁻¹ s⁻¹
kon [M-1 min-1] [10]: 25508.45 M⁻¹ s⁻¹ and 19799.72 M⁻¹ s⁻¹
koff [11]: 3.12e-05 s⁻¹
koff [min-1] [11]: 0.00183 min⁻¹ and 0.00215 min⁻¹
tR [11]: 534.2 min and 545.6 min and 464.7 min
koff [12]: 2.9e-05 s⁻¹
koff [min-1] [12]: 0.00253 min⁻¹ and 0.00232 min⁻¹
tR [12]: 575.7 min and 394.8 min and 431.4 min
koff [13]: 2.68e-05 s⁻¹
koff [min-1] [13]: 0.00305 min⁻¹ and 0.00242 min⁻¹
tR [13]: 619.6 min and 328.4 min and 413.1 min
koff [14]: 2.58e-05 s⁻¹
koff [min-1] [14]: 0.00219 min⁻¹ and 0.00238 min⁻¹
tR [14]: 643.1 min and 457.0 min and 420.0 min
